Source: patent US20120190620A1, “METHODS TO IDENTIFY TARGETS AND MOLECULES REGULATING PURINOSOMES AND THEIR USES” (priority 2010, published 2012)

System: HeLa cells
Assay: Purinosome dynamics DMR screen, sequential order molecule, DMAT, TBB
Type: cell-based, human
Details: for modulation of the DMAT signal / modulation of the TBB signal: adrenergic receptor ligand library, order ligand, TBB, FIG. 5, DMAT
Excerpt: A library of agonists for various different GPCRs were used to individually pretreat a confluent layer of Hela cells for about one hour, before sequential stimulation with DMAT and TBB, respectively. The responses were monitored using Epic® system.
A library of molecules targeting endogenous alpha2A and beta2 adrenergic receptors were used to individually pretreat a confluent layer of Hela cells for about one hour, before sequential stimulation with DMAT and TBB, respectively. The responses were monitored using Epic® system.
Epic® wavelength interrogation system (Corning Inc., Corning, N.Y.) was used for whole cell sensing. This system consists of a temperature-control unit, an optical detection unit, and an on-board liquid handling unit with robotics. The detection unit is centered on integrated fiber optics, and enables kinetic measures of cellular responses with a time interval of ˜15 sec. The compound solutions were introduced by using the on-board liquid handling unit (i.e., pippetting).
For biosensor cellular assays, compound solutions were made by diluting the stored concentrated solutions with the HBSS (1× Hanks balanced salt solution, plus 20 mM Hepes, pH 7.1), and transferred into a 384 well polypropylene compound storage plate to prepare a compound source plate. Two compound source plates were made separately when a two-step assay was performed. In parallel, the cells were washed twice with the HBSS and maintained in 30 μl of the HBSS to prepare a cell assay plate. Both the cell assay plate and the compound source plate(s) were then incubated in the hotel of the reader system. After incubation the baseline wavelengths of all biosensors in the cell assay microplate were recorded and normalized to zero. Afterwards, a 2 to 10 min continuous recording was carried out to establish a baseline, and to ensure that the cells reached a steady state. Cellular responses were then triggered by transferring 10 μl of the compound solutions into the cell assay plate using the on-board liquid handler.
All studies were carried out at a controlled temperature (28° C.). At least two independent sets of experiments, each with at least three replicates, were performed.
The upstream signaling pathways linking to the purinosome is unknown at the present time. To identify cellular targets and pathways that are involved in regulating purinosome dynamics, a library of agonists for a great number of G protein-coupled receptors and membrane bound receptor tyrosine kinases was made in house, and each agonist was used to stimulate a confluent layer of Hela cells, cultured using high initial seeding number (25k per well for 384 well Epic® cell culture compatible biosensor microplates) in purine rich medium (i.e., regular 10% FCS or FBS). The concentrations for all small organic molecules were 10 micromolar, whereas 1 micromolar for all small peptides, and 100 nanomolar for all protein factors (molecular weight >15k Da). The cellular responses to each agonist were recorded for about 1 hour, and used to determine the functional expression of their corresponding cognate receptor(s).
To examine the receptor whose signaling is involved in regulating the purinosome dynamics, Hela cells were pretreated individually with each agonist for about one hour, followed by sequential stimulation with DMAT (20 micromolar) and TBB (25 micromolar), each step about 1 hour.

[1] = GPCR/RTK agonist library, pretreated about one hour, order agonist, DMAT (20 micromolar), TBB (25 micromolar), FIG. 3

SMILES | modulation of the DMAT signal | modulation of the TBB signal | modulation of the DMAT DMR signal [1] | modulation of the TBB DMR signal [1]
N=C(CC(O)COc1ccccc1-c1ccccc1)N1CCCCC1 (centres unmarked) [AH11110A] | potentiate | suppress |  | 
O=C(O)c1cc([N+](=O)[O-])ccc1NCCCc1ccccc1 [NPPB] |  |  | potentiate | no or little impact
CC(C)(Cc1c[nH]c2ccc(Cl)cc12)NCCOc1ccccc1OCC1CC1 [RS17053] | potentiate | suppress |  | 
Brc1c(NC2=NCCN2)ccc2nccnc12 [UK14304] | suppress | potentiate |  | 
Clc1ccc2c(c1)C(N1CCNCC1)=Nc1ccccc1O2 [amoxapine] | potentiate | suppress |  | 
c1ccc2c(c1)[I+]c1ccccc1-2 [diphylpheneiodonium] | potentiate | suppress |  | 
CC(CCc1ccc(O)cc1)NCCc1ccc(O)c(O)c1 (centres unmarked) [dobutamine] | specifically suppress |  |  | 
N=C(N)N/N=C/c1c(Cl)cccc1Cl [guanabenz] | suppress | potentiate |  | 
N=C(N)NC(=O)Cc1c(Cl)cccc1Cl [gufacine] | suppress | potentiate |  | 
CC(C(O)c1ccc(O)cc1)N1CCC(Cc2ccccc2)CC1 (centres unmarked) [ifenprodil] | potentiate | suppress |  | 
CCC(NC(C)C)C(O)c1ccc(O)c(O)c1 (centres unmarked) [isoetharine] | specifically suppress |  |  | 
CC(C)NCC(O)c1ccc(O)c(O)c1 (centres unmarked) [isoproterenol] | specifically suppress |  |  | 
CNCCCC12CCC(c3ccccc31)c1ccccc12 [maprotiline] | potentiate | suppress |  | 
CC(N)C(O)c1ccc(O)c(O)c1 (centres unmarked) [methylnorephrine] | suppress | potentiate |  | 
c1ccc2c(CC3=NCCN3)cccc2c1 [naphazoline] | suppress | potentiate |  | 
NC[C@H](O)c1ccc(O)c(O)c1 [norepinephrine] | suppress | potentiate |  | 
C1COC(NC(C2CC2)C2CC2)=N1 [rilmenidine] | suppress | potentiate |  | 
Clc1ccc2nsnc2c1NC1=NCCN1 [tizanidine] | suppress | potentiate |  | 
Cc1cccc(C)c1N=C1NCCCS1 [xylazine] | suppress | potentiate |  | 
